Test system: myotubes differentiated from C2C12 cells
Assay: Mitochondrial calcium rise in C2C12 myotubes (mitochondrial aequorin luminescence)
Format: cell-based
Conditions: C2C12-derived myotubes, taurine alone at the indicated concentrations (μM) vs. control, compounds added 2 hours before measurement, 28 experiments, P<0.05 one-way ANOVA
Protocol: To test the effect of oleuropein (or oleuropein aglycone), taurine and their combination in living cells, the inventors measured mitochondrial calcium rise in myotubes differentiated from C2C12 cells. C2C12 cells were purchased from ATCC. C2C12 cells were seeded in 96-well plates at a density of 8000 cells per well in DMEM high glucose (Gibco)+10% fetal calf serum. Myotubes were differentiated by growing the C2C12 cells in DMEM containing 2% horse serum, for 4 days. Mitochondrial calcium measurements were carried out using myotubes infected with the adenovirus (from Sirion biotech) expressing the mitochondrially targeted calcium sensor mitochondrial mutated aequorin (Montero et al., 2002 Biochem J. 2002 Jul. 15; 365(Pt 2): 451-9). For aequorin reconstitution, 24 hours after infection, myotubes were incubated for 2 h at room temperature (22±°C.) in standard medium (145 mM NaCl, 5 mM KCl, 1 mM MgCl2, 1 mM CaCl2, 10 mM glucose and 10 mM Hepes, pH 7.4) with 1 μM wild-type coelenterazine. […] Luminescence was measured at the FLIPR Tetra Aequorin (Molecular Devices). Calibration of the luminescence data into calcium concentration was carried out using an algorithm as described previously (Montero et al, 2002, Biochem J. 2002 Jul. 15; 365(Pt 2): 451-9)). Custom module analysis based on Excel (Microsoft) and GhaphPad Prism 7.02 (GraphPad) software was used for quantification.

NCCS(=O)(=O)O [Taurine, 2-aminoethanesulfonic acid]
integrated mitochondrial calcium rise, evoked by 5 mM caffeine: enhances mitochondrial Ca2+ elevation | integrated mitochondrial calcium rise, evoked by 5 mM caffeine (listed as taurine): enhances mitochondrial function

Reference: US20260174673A1, “COMPOSITIONS AND METHODS USING A COMBINATION OF OLEUROPEIN AND TAURINE” (SOCIÉTÉ DES PRODUITS NESTLÉ S.A., priority 2022, published 2026)
